Data set [1] in a line: pH and stability of CPI-613 drug product diluted with D5W. It is filed as physicochemical. As to conditions: solution in 1M aqueous triethanolamine diluted from 50 mg/mL to as low as 4 mg/mL with D5W. The protocol:
A solution of 6,8-bis-benzylthio-octanoic acid in 1M aqueous triethanolamine is diluted from 50 mg/mL to as low as 4 mg/mL with sterile 5% dextrose for injection (D5W) prior to administration. After dilution with D5W, the solution is clear and has a pH of 8.4-8.8. The D5W solution of 6,8-bis-benzylthio-octanoic acid is administered as an IV infusion over two hours via a central venous catheter on days 1-5 of every cycle.
CPI-613 must be diluted from 50 mg/mL to 12.5 mg/mL with 5% Dextrose Water (D5W) (i.e., 1 portion of CPI-613 diluted with 3 portions of D5W) prior to administration. The diluted drug product should be visually inspected for clarity. […] After dilution with sterile D5W, the solution is clear and has a pH of 8.4-8.8.

Data set [2] can be described thus: Photosensitivity of CPI-613. It is filed as physicochemical. The protocol:
Each vial contains 10 mL of CPI-613 at a concentration 50 mg/mL, equivalent to 500 mg of CPI-613. The drug product of CPI-613 is a clear and colorless solution that is free of any particulate matter. CPI-613 should be stored under refrigeration, at 2°-8° C. (36°-46° F.), except when being prepared for administration.

Data set [3] in a line: Compatibility studies with IV infusion sets, IV bags and syringes (Study COM-003). The class given is physicochemical. The text has this:
Therefore, DEHP-containing IV infusion sets, IV bags or syringes should not be used in mixing or administration of CPI-613. […] Therefore, these 4 types of IV infusion sets, and IV infusion sets that are made with the same materials, can be used to administer CPI-613. […] Therefore, any of these types of syringes, and syringes that are made with the same materials, can be used to administer CPI-613. Also, glass syringes can also be used, since glass (such as glass containers) is compatible with CPI-613 drug product. • Norm-Ject, polyethlyene barrel, polyethylene plunger, latex free (Henke Sass Wolf GMBH) syringes • Becton Dickinson syringes • Terumo syringes • Monoject syringes • Glass syringes

Data set [4] can be described thus: Toxicities/side effects seen in prior CPI-613 studies treating other types of cancers. It is filed as in vivo. The source says:
Given the limited data for treating Burkitt lymphoma and other hematological malignancies with CPI-613, the following are the most frequent toxicities seen in prior CPI-613 studies treating other types of cancers.

The nature of data set [5]: Animal studies of IV administration of CPI-613. The class given is in vivo. The protocol: CPI-613 must be administered IV, via an IV catheter that is free flowing and free of air in the dead space of the IV catheter, to minimize vascular irritation, inflammation and acute toxicity of CPI-613. […] To avoid local reactions at and around the site of administration, CPI-613 must be administered via a central venous catheter.
CPI-613 must not be administered as a bolus, but by infusion, at a rate of ˜0.5 mL/min, via a central venous catheter with D5W running at a rate of about 125-150 mL/hr. This is to minimize potential acute toxicity of CPI-613, according to animal studies.

A short description of data set [6]: Maximum tolerated dose of CPI-613 as a single agent. As to conditions: CPI-613 given as a single agent. The class given is in vivo. The method, then: In the event that the DLT in ≥2 patients is not observed once the 3,000 mg/m^2 cohort has been tested, dose escalation is also considered to be complete since 3,000 mg/m^2 is the MTD of CPI-613 when given as a single agent. Three additional patients will be enrolled at the MTD for a total of six expected patients at this dose level.

Structures are written as SMILES.

`O=C(O)CCCCC(CCSCc1ccccc1)SCc1ccccc1` (stereo not drawn) [CPI-613, 6,8-bis-benzylthio-octanoic acid]: the “pH of solution after dilution with D5W” value in data set [1] is 8.4-8.8. In addition, the Photosensitivity result in data set [2] is on record as “slightly photosensitive”. For the same compound, the “Compatibility with IV infusion sets” value in data set [3] (PVC, latex and polyethylene sets) is listed as “compatible with 4 commonly used IV infusion sets”. Besides, in data set [3] (Study COM-003), the “Leaching of DEHP from IV infusion sets and IV bags” value is “can cause leaching of Diethylhexyl Phthalate (DEHP)”. Also, in data set [4], the Common side effects result was “nausea, leukocytopenia, neutrophils (neutropenia), fatigue, and elevated alkaline phosphatase (ALP)”; the “Rare but serious side effects” value was “infections, disseminated intravascular coagulation, elevated troponin, and renal failure”. Besides, the “Effect of accidental co-administration of extra air in the dead space of IV catheters” value in data set [5] (animal studies, IV administration) is listed as “potential to induce acute toxicity”. The “Effect of accidental leakage into the perivascular space during IV administration” value in data set [5] (in vivo, iv) is reported as “can induce significant local inflammation”. In addition, the MTD in data set [6] is listed as 3,000 mg/m^2.

These data come from patent US20220151994A1, “THERAPEUTIC METHODS AND COMPOSITIONS FOR TREATING LYMPHOMA USING 6,8-BISBENZYLTHIO-OCTANOIC ACID” (Rafael Pharmaceuticals, Inc., priority 2019, published 2022).
